Results reported in patent publication US8618068B2, “Methods and low dose regimens for treating red blood cell disorders” (priority 2009, dated 2013).
Values joined by “and” are separate entries in the source; they are usually repeats but may differ in a detail not shown here. Equal values may be shown once. Marks after values point to notes of the source that are not given here.

Experiments:
[1] = system: human γ-globin mRNA; test: Human γ-globin mRNA synthesis in βYAC transgenic mice; type: in vivo; details: IP 500 mg/kg/day
Excerpt: Transgenic mice containing the human β globin gene locus in a yeast artificial chromosome (βYAC) displaying the correct developmental regulation of ε-, γ-, and β-globin genes (with a silenced y-globin gene in the adult stage) were used to study the effects of DMB on γ-globin induction and erythroid cell production. In the μLCR-human A γ-globin transgenic mice, the y-globin mRNA expression relative to murine α-globin mRNA was increased by a mean of 1.8-fold above the baseline after treatment with DMB. In the βYAC transgenic mice at intraperitoneal (IP) doses of 500 mg/kg/day, DMB induced a 2-fold increase in human γ-globin mRNA synthesis relative to that of total non-α-globin. This level of induction was similar to that seen with 1,000 mg/kg/day of butyrate, and the changes were observed from 3 days after treatment initiation and persisted until 3 to 5 days after treatment termination.

[2] = Dose range-finding embryo/fetal developmental toxicity in rats; type: in vivo
Experimental: DMB was administered orally by gavage to 4 groups of 8 bred female Sprague Dawley rats once daily from gestation Days 6 through 17, at dosage levels of 50, 150, 500 and 1000 mg/kg/day. […] On gestation Day 20, a laparohysterectomy was performed on each surviving female.

[3] = system: fetal hemoglobin (HbF); test: Phase 2 trial in sickle cell disease patients, HbF, total Hgb, fetal globin mRNA; type: in vivo, human
Experimental: A randomized, blinded dose-ranging Phase 1/2 clinical trial was performed in 24 US and Jamaican adult patients with sickle cell disease (including HbSS or S/β thalassemia). DMB was administered once daily for six week cycles of daily therapy with a 2 week treatment break between two cycles, then followed by a final 4 weeks without treatment. Three dose levels (10, 20, 30 mg/kg/day) were studied sequentially. Four out of 24 subjects were treated with placebo and 21 subjects were evaluable. Seven Patients (5 active/2 placebo) at 10 mg/kg, 6 patients (5 active/1 placebo) at 20 mg/kg, and 9 patients (7 active/1 placebo) at 30 mg/kg were randomized in the study. Patients ranged in age from 14 to 56 with a median age of 31 and were comprised of […]. Patients were followed for hematologic parameters focusing on fetal hemoglobin (HbF). HbF was measured by a Waters Empower 32 HPLC system with a Synchropak CM-300 column.

[4] = Immunotoxicology weight-of-evidence analysis, repeat dose dog study; type: in vivo, Beagle dog
Excerpt: The immunotoxicological potential of DMB has been evaluated by a weight-of-evidence analysis of the data generated in the repeat dose Sprague Dawley rat and Beagle dog studies. In both studies, there were no effects of treatment on WBC levels or lymph node histopathology, which are predictive of potential immunotoxicity.

[5] = Half-life of DMB (summary statement); details: in vivo
[6] = system: F-reticulocytes; test: F-reticulocyte production in anemic baboons; type: in vivo
Experimental: Expression of γ-globin and erythroid cell production was evaluated in a primate model in which baboons are phlebotomized on a daily basis to simulate the chronic RBC destruction associated with hemoglobinopathies. In this model, baboons, aged 2 to 3 years, had 2.5 to 7 mL/kg of blood withdrawn daily, and the volume replaced with an identical volume of normal saline. Hemoglobin levels were lowered relative to control levels, but were maintained between 6.5 to 7.5 g/dL, the level necessary for the modulation of globin genes in this animal species. The animals were supplemented with iron dextran and folic acid. The phlebotomy regimen effectively exchanged the animals' total blood volume every 10 to 20 days.
Globin chain protein synthesis was measured in DMB treated animals using ^3H-leucine-labeled reticulocytes before and 2 and 4 days after treatment. Complete blood counts and reticulocyte counts were monitored 3 times per week and plasma concentrations of the test article was determined. DMB was administered intravenously (IV, daily) or orally via nasogastric gavage under light anesthesia (on 3 alternating days per week for up to 6 weeks), on a dose-escalation schedule with starting doses of 500 to 800 mg/kg. If γ globin induction was observed, lower doses (40-200 mg/kg) were tested. Recombinant human erythropoietin (rhu-EPO) was also administered in separate treatment courses to 2 baboons at doses of 300 U/kg three times per week subcutaneously as a positive control for the erythropoietic effects of DMB. Treatments were performed in individual baboons.
In the anemic baboon model, increases in F-reticulocytes were usually observed within 2-3 days of treatment initiation and diminished within 3 to 5 days of treatment cessation.

[7] = system: β- and γ-globin gene promoters; test: Double-luciferase reporter assay of γ-globin expression in GM979 cells; type: cell-based, murine
Excerpt: DMB was compared to arginine butyrate (AB) for its ability to induce y-globin expression in a double-luciferase reporter assay in murine erythroleukemia (GM979) cells transfected with the pLCR linked to the β- and γ-globin gene promoters linked to a different luciferase gene.

[8] = Pharmacokinetics of single doses in 5 baboons; details: monkey, in vivo
Experimental: Pharmacokinetics analyses have been conducted with DMB and 2,2-dimethylbutyric acid neutralized with L-arginine in baboons, dogs, and rats. The AUC per dose varied between animals.
Pharmacokinetic analyses of 2,2-dimethylbutyrate was conducted as either the sodium salt or the L-arginine salt, via the oral or intravenous route, as single doses to 5 baboons at doses of 33.3, 83.3, 100, 125 or 167 mg/kg free acid.
The data collected on DMB in plasma allowed an assessment of pharmacokinetic parameters; however, since collection time points were not performed in some baboons during the terminal elimination phase, these determinations are preliminary. The AUC per dose varied between animals. The area under the plasma concentration time-curve (AUC0-24 hr) following oral administration of DMB at 83.3 or 125 mg/kg free acid (100 and 150 mg/kg with salt) ranged from 1962-9363 μmol·h/L ([…]).

## CCC(C)(C)C(=O)[O-].[Na+] [DMB, Sodium 2,2-dimethylbutyrate]
[1]
  increase in human γ-globin mRNA synthesis relative to total non-α-globin: 2 fold
[2]; 50 mg/kg/day
  maternal or fetal effects: No maternal or fetal effects
[2]; 150 mg/kg/day
  postimplantation loss: Increased postimplantation loss
[2]; rat, in vivo
  acceptability of dosage for a definitive embryo/fetal developmental toxicity study: considered unacceptable
[3]; 30 mg/kg doses
  responding subjects in whom lactate dehydrogenase (LDH) declined: 4 of 5
[3]; Day 97
  dose level with the largest increase in HbF: 30 mg/kg
  dose level with the largest increase in total Hgb: 30 mg/kg
[3]; all 3 DMB dose groups, compared to a decrease in placebo
  change in percent HbF at Day 97: median increases
[3]; all three DMB dose groups
  change in absolute HbF at Day 97: Median increases
[3]; all three DMB dose groups, compared to a decrease in placebo
  change in total Hgb at Day 97: median increases
[3]; in some instances (FIG. 22, 10 mg/kg)
  percentage of F-cells and percentage of fetal hemoglobin: increased throughout the treatment period
[4]
  effects on WBC levels or lymph node histopathology: no effects
[5]
  half-life: 540 to 660 min
[6]; 150 mg/kg/day, IV, 5 days
  F-reticulocytes Mean Fold Increase: 5
[6]; 200 mg/kg/day, IV, 5 days/wk
  F-reticulocytes Mean Fold Increase: 15
[6]; 500 mg/kg/2nd day, Oral, 5 days/wk, 2 wks
  F-reticulocytes Mean Fold Increase: 3.8
[6]; 500-700 mg/kg/2nd day, Oral
  F-reticulocytes Mean Fold Increase: 3.8
[7]; 0.5 mM, compared to untreated controls, p ≦ 0.01
  Mean Fold Increase: 2.2*
[7]; Active Concentration 0.5 mM
  γ/(γ + β) globin Expression, Range: 0.033-0.052
[8]
  clearance: 0.833 to 7 mL/min/kg
[8]; half-life, range
  half-life: 72 to 474 min
[8]; median half-life
  half-life: 162 min
[8]; po, 125 mg/kg
  AUC(0-t): 1960 µM·h to 9360 µM·h and 226 ng·h/mL to 1080 ng·h/mL
[8]; po, Oral bioavailability over 24 hours
  bioavailability: > 60%
